Like-named read-outs stand apart in the source and are kept apart here.
Legend:
[1] = RNA encapsulation efficiency of LNP (Ribogreen fluorescence assay); format: physicochemical
Summary of the method: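 LNP samples diluted in 1× TE buffer with 0.2% Triton X-100 (total RNA) or without it (free RNA), stained with RiboGreen for ~10 min at room temperature in the dark, read at ex 488/em 525 nm against RNA standard curves. Encapsulation efficiency = (Total RNA − Free RNA)/Total RNA.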

[2] = test system: B2M; assay: B2M editing in mouse liver by NGS after i.v. LNP delivery of Cas9 mRNA and sgRNA; format: in vivo; conditions: for Editing (%) B2M liver: 6 days post-dose, G650 1:1
Protocol: Preparations of various LNP compositions were prepared with amine lipids. In assays for percent liver editing in mice, Cas9 mRNA and chemically modified sgRNA were formulated in LNPs, at either a 1:1 w/w ratio or a 1:2 w/w ratio. LNPs are formulated with a composition of a given ionizable lipid (e.g. an amine lipid), DSPC, cholesterol, and PEG-2k-DMG, with a 6.0 N:P ratio.
LNPs were administered to mice by a single dose at 0.1 mg/kg, unless otherwise noted and genomic DNA was isolated for NGS analysis as described below.
CD-1 female mice, ranging from 6-10 weeks of age were used in each study. Animals were weighed and grouped according to body weight for preparing dosing solutions based on group average weight. LNPs were dosed via the lateral tail vein in a volume of 0.2 mL per animal (approximately 10 mL per kilogram body weight). The animals were periodically observed post dose for adverse effects for at least 24 hours post dose. Animals were euthanized at 6 or 7 days by exsanguination via cardiac puncture under isoflurane anesthesia. Blood was collected into serum separator tubes or into tubes containing buffered sodium citrate for plasma as described herein. For studies involving in vivo editing, liver tissue was collected from each animal for DNA extraction and analysis.
Cohorts of mice were measured for liver editing by Next-Generation Sequencing (NGS).
In brief, to quantitatively determine the efficiency of editing at the target location in the genome, genomic DNA was isolated and deep sequencing was utilized to identify the presence of insertions and deletions introduced by gene editing.
PCR primers were designed around the target site (e.g., B2M), and the genomic area of interest was amplified. Additional PCR was performed according to the manufacturer's protocols (Illumina) to add the necessary chemistry for sequencing. The amplicons were sequenced on an Illumina MiSeq instrument. The reads were aligned to the […] after eliminating those having low quality scores. The resulting files containing the reads were mapped to the reference genome (BAM files), where reads that overlapped the target region of interest were selected and the number of wild type reads versus the number of reads which contain an insertion, substitution, or deletion was calculated.
The editing percentage (e.g., the “editing efficiency” or “percent editing”) is defined as the total number of sequence reads with insertions or deletions over the total number of sequence reads, including wild type.
CD-1 female mice were dosed i.v. at 0.1 mpk or 0.3 mpk. […] For animals dosed with G282 targeting TTR, blood and the liver were collected and serum TTR and editing were measured. For animals dosed with G650 targeting B2M, liver was collected and editing was measured.

[3] = test system: TTR; assay: Transthyretin (TTR) ELISA analysis of mouse serum after LNP dosing; format: in vivo; conditions: for response vs control in vivo at 0.1 mg/kg / response vs control in vivo at 0.03 mg/kg: Mus musculus, iv, read-out: Serum TTR % TSS
Summary of the method: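 Female CD-1 mice aged 6-10 weeks were grouped by body weight and given LNPs by lateral tail vein injection (0.2 mL per animal, about 10 mL per kilogram). Mice were bled by cardiac puncture under isoflurane into serum separator tubes. Serum was diluted 10,000-fold for the 0.1 mpk dose, and total TTR was quantified with a Mouse Prealbumin (Transthyretin) ELISA Kit following the kit directions.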

[4] = Example 55: 0.1 mpk i.v., 7 days post-dose, G282 1:1

Compound: CCCCCCCCCOC(=O)CCCCCCCN(CCO)CCCCCCCC(OCCCCCCCC)OCCCCCCCC [Compound 1, nonyl 8-((8,8-bis(octyloxy)octyl)(2-hydroxyethyl)amino octanoate]
- Encapsulation (%) ([1]; Table 3, Example 52: LNP, Cas9 mRNA + sgRNA (G650) 1:1 w/w, N:P 6.0, Compound 19 50/9/38/3, others 50/10/38.5/1.5): 98%
- Encapsulation (%) ([1]; Table 5, Example 53: LNP with gRNA G282 (TTR), 1:1 w/w, N:P 6.0): 97%
- Encapsulation (%) ([1]; Table 5, Example 53: LNP with gRNA G650 (B2M), 1:1 w/w, N:P 6.0): 98%
- Encapsulation (%) ([1]; Table 10, Example 55: LNP, G282 (TTR) 1:1 w/w, N:P 6.0): 97%
- Encapsulation (%) ([1]; Table 14, Example 58: LNP, G282 (TTR) 1:1 w/w, N:P 6.0): 97%
- Encapsulation (%) ([1]; Table 16, Example 59: LNP, G282 (TTR) 1:1 w/w, N:P 6.0): 96%
- Encapsulation (%) ([1]; Table 18, Example 60: LNP, G502 (TTR), sgRNA:Cas9 mRNA 1:2 w/w, N:P 6.0): 97%
- Encapsulation (%) ([1]; Table 22, Example 62: LNP, G282 (TTR), sgRNA:Cas9 mRNA 1:2 w/w, N:P 6.0): 97%
- Encapsulation (%) ([1]; Table 24, Example 63: LNP, G282 (TTR) 1:1 w/w, NP 6.0): 98%
- Editing (%) of B2M in mouse liver ([2]; Example 52: LNP single dose 0.1 mg/kg i.v., CD-1 female mice, sgRNA G650:Cas9 mRNA 1:1, NGS): 36.8%
- Editing (%) B2M liver ([2]; Example 53: 0.1 mpk i.v., CD-1 female mice): 41.0%
- Editing (%) B2M liver ([2]; Example 53: 0.3 mpk i.v., CD-1 female mice): 62.9%
- B2M editing in the liver compared with Compound 19 ([2]; Example 53 text: 0.1 and 0.3 mpk): higher B2M editing in the liver than Compound 19 at each dose
- dose response of B2M editing in liver ([2]; Example 53 text: 0.1 mpk vs 0.3 mpk): increased editing of B2M in liver significantly between the 0.1 mpk and 0.3 mpk doses
- TSS (serum TTR % TSS) ([3]; Example 53: 0.1 mpk i.v., 6 days post-dose, G282 1:1): 5 % TSS
- Serum TTR ([3]; Example 53: 0.1 mpk i.v., CD-1 female mice, 6 days post-dose, G282 1:1): 19 µg/mL
- TSS (serum TTR % TSS) ([3]; Example 53: 0.3 mpk i.v., 6 days post-dose, G282 1:1): 5 % TSS
- Serum TTR ([3]; Example 53: 0.3 mpk i.v., CD-1 female mice, 6 days post-dose, G282 1:1): 5 µg/mL
- Serum TTR [3, 4]: 391 µg/mL
- Serum TTR (% TSS) [3, 4]: 34 % TSS
- Serum TTR ([3]; Example 58: 0.1 mpk i.v., 6 days post-dose, G282 1:1): 656 µg/mL
- Serum TTR ([3]; Example 59: 0.1 mpk i.v., 7 days post-dose, G282 1:1): 327 µg/mL
- Serum TTR ([3]; Example 60: 0.1 mpk i.v., 6 days post-dose, G502 1:2): 353 µg/mL
- Serum TTR ([3]; Example 62: 0.03 mpk i.v., 7 days post-dose, G282 1:2): 594 µg/mL
- Serum TTR ([3]; Example 62: 0.1 mpk i.v., 7 days post-dose, G282 1:2): 241 µg/mL
- Serum TTR ([3]; Example 63: 0.03 mpk i.v., 7 days post-dose, G282 1:1): 741.05 µg/mL
- Serum TTR ([3]; Example 63: 0.1 mpk i.v., 7 days post-dose, G282 1:1): 351.76 µg/mL
- response vs control in vivo at 0.1 mg/kg ([3]; 144 h, Example 58: 0.1 mpk i.v., 6 days post-dose, G282 1:1): 66%
- response vs control in vivo at 0.1 mg/kg ([3]; 144 h, Example 60: 0.1 mpk i.v., 6 days post-dose, G502 1:2): 25%
- response vs control in vivo at 0.1 mg/kg ([3]; 168 h, Example 59: 0.1 mpk i.v., 7 days post-dose, G282 1:1): 35%
- response vs control in vivo at 0.03 mg/kg ([3]; 168 h, Example 62: 0.03 mpk i.v., 7 days post-dose, G282 1:2): 93%
- response vs control in vivo at 0.1 mg/kg ([3]; 168 h, Example 62: 0.1 mpk i.v., 7 days post-dose, G282 1:2): 38%
- response vs control in vivo at 0.03 mg/kg ([3]; 168 h, Example 63: 0.03 mpk i.v., 7 days post-dose, G282 1:1): 91.8%
- response vs control in vivo at 0.1 mg/kg ([3]; 168 h, Example 63: 0.1 mpk i.v., 7 days post-dose, G282 1:1): 43.6%

From patent US20260225997A1, “IONIZABLE AMINE LIPIDS” (Intellia Therapeutics, Inc., priority 2018, published 2026)
